Assay results taken from the supplement of paper PMC10878532, “Sperm Toolbox—A selection of small molecules to study human spermatozoa” (PLOS ONE, 2024).
Counter-ions that a name gives are not always drawn.

How the values were obtained:
human spermatozoa [1] = test: hyperactivated motile sperm, percent change vs DMSO (capacitating); higher = more of the measured sperm population than DMSO, for viability, fewer PI-positive (dead) cells than DMSO; conditions: incubation time: 30min incubation
HeLa [2] = test: HeLa toxicity: nuclei-count effect normalised to DMSO (DMSO = 0); higher = more features changed / larger toxic effect; conditions: incubation time: 24h incubation
human spermatozoa [3] = test: viability fold change, 1 - (PI-positive fraction / DMSO median); higher = more of the measured sperm population than DMSO, for viability, fewer PI-positive (dead) cells than DMSO; conditions: incubation time: 3h, non-capacitating
human spermatozoa [4] = test: acrosome-reacted (PNA+) sperm after agonist cocktail, percent change vs DMSO (capacitating); higher = more of the measured sperm population than DMSO, for viability, fewer PI-positive (dead) cells than DMSO; conditions: incubation time: 3h, capacitating + agonist cocktail 1h
human spermatozoa [5] = test: progressively motile sperm, percent change vs DMSO (capacitating); higher = more of the measured sperm population than DMSO, for viability, fewer PI-positive (dead) cells than DMSO; conditions: incubation time: 30min incubation
human spermatozoa [6] = test: total motile sperm, percent change vs DMSO (non-capacitating); higher = more of the measured sperm population than DMSO, for viability, fewer PI-positive (dead) cells than DMSO
HepG2 = HepG2 toxicity (resazurin), effect normalised to DMSO (DMSO = 0); higher = more features changed / larger toxic effect; conditions: incubation time: 70h incubation
human spermatozoa [7] = test: change in acrosome-reacted (PNA+) sperm vs DMSO, no agonist (capacitating); higher = more of the measured sperm population than DMSO, for viability, fewer PI-positive (dead) cells than DMSO; conditions: incubation time: 3h
HeLa [8] = test: Cell Painting percent induction (share of features beyond 2 z-scores vs DMSO); higher = more features changed / larger toxic effect; extreme values may be limits of the assay; conditions: incubation time: 24h incubation
human spermatozoa [9] = test: progressively motile sperm, percent change vs DMSO (non-capacitating); higher = more of the measured sperm population than DMSO, for viability, fewer PI-positive (dead) cells than DMSO; extreme values may be limits of the assay
[10] = incubation time: 10min incubation, 9.99 µM
[11] = incubation time: 10min incubation, 29.9 µM
[12] = incubation time: 3h incubation, 9.99 µM
[13] = incubation time: 3h incubation, 29.9 µM
[14] = incubation time: 6h incubation, 9.99 µM
[15] = incubation time: 6h incubation, 29.9 µM
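Wherever progressively motile sperm, percent change vs DMSO (non-capacitating) is given: pooled live human sperm from at least 3 donors, tracked by automated microscopy in 0.5 s time-lapse movies, compounds at 10 and 30 µM, versus median of 16 DMSO wells per plate.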
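Wherever total motile sperm, percent change vs DMSO (non-capacitating) is given: sperm pooled from at least 3 donors, tracked in 0.5 s time-lapse movies by automated microscopy after 10 min, 3 h or 6 h with compound at 10 or 30 µM.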

SMILES	hyperactivated motile sperm (human spermatozoa [1]; 9.99 µM) [%]	hyperactivated motile sperm (human spermatozoa [1]; 29.9 µM) [%]	HeLa toxicity: nuclei-count effect normalised (HeLa [2]; 9.99 µM) [%]	HeLa toxicity: nuclei-count effect normalised (HeLa [2]; 29.9 µM) [%]	viability fold change (human spermatozoa [3]; 9.99 µM)	viability fold change (human spermatozoa [3]; 29.9 µM)	acrosome-reacted (human spermatozoa [4]; 9.99 µM) [%]	acrosome-reacted (human spermatozoa [4]; 29.9 µM) [%]	progressively motile sperm (human spermatozoa [5]; 9.99 µM) [%]	progressively motile sperm (human spermatozoa [5]; 29.9 µM) [%]	total motile sperm (human spermatozoa [6]; [10]) [%]	total motile sperm (human spermatozoa [6]; [11]) [%]	total motile sperm (human spermatozoa [6]; [12]) [%]	total motile sperm (human spermatozoa [6]; [13]) [%]	total motile sperm (human spermatozoa [6]; [14]) [%]	total motile sperm (human spermatozoa [6]; [15]) [%]	HepG2 toxicity (HepG2; 10 µM) [%]	HepG2 toxicity (HepG2; 30 µM) [%]	change in acrosome-reacted (human spermatozoa [7]; 9.99 µM) [%]	change in acrosome-reacted (human spermatozoa [7]; 29.9 µM) [%]	Cell Painting percent induction (HeLa [8]; 9.99 µM) [%]	Cell Painting percent induction (HeLa [8]; 29.9 µM) [%]	progressively motile sperm (human spermatozoa [9]; [10]) [%]	progressively motile sperm (human spermatozoa [9]; [11]) [%]	progressively motile sperm (human spermatozoa [9]; [12]) [%]	progressively motile sperm (human spermatozoa [9]; [13]) [%]	progressively motile sperm (human spermatozoa [9]; [14]) [%]	progressively motile sperm (human spermatozoa [9]; [15]) [%]
COC(=O)c1c(C)[nH]c(C)c1C(=O)c1ccccc1Cc1ccccc1	21.1	-0.915	4.01	0.735	0.0191	-0.102	25.4	48.8	13.4	14.7	0.541	-1.51	-6.62	-4.77	-5.32	-5.3	-4.33	10.6	0.874	0.596	0	0.18	-1.68	-2.66	4.27	-4.02	12.6	4.09
O=C(O)c1ccc(/C=C2/SC(=S)N(c3cccc(C(F)(F)F)c3)C2=O)cc1 [CTFRinh-172]	-0.45	-19.9	0.134	4.28	-0.401	-0.284	2.51	5.75	-6.92	-8.59	-0.0195	0.898	0.0108	-0.0432	-7.63	-1.41	10.5	-1.68	0.257	-0.529	1.51	2.67	3.85	-3.67	4.25	3.7	-2.41	3.06
Clc1ccc(C(OCCN2CCCCC2)c2ccccc2)cc1 (stereo unspecified) [Cloperastine hydrochloride]	-26.2	-69.6	6.68	19.6	-1.96	-1.7	-1.44	-4.86	5.13	-14.3	1.61	2.24	-3.5	-29.1	-19.1	-44	7.17	8.06	1.21	0.462	1.84	3.64	7.41	-9.23	-87	-98.1	-86.3	-97.8
Nc1nonc1C(=O)c1cccc(OCc2nc3ccccc3[nH]2)c1 [ASI-8]	-38	-39.8	-5.48	1.8	-0.34	-0.223	-14.8	-14.9	11.1	6.99	3.13	2.79	1.2	-0.414	3.96	1.2	7.95	-4.37	0.432	0.568	0.036	0.072	-2.86	-2.99	-14.7	-20.6	-17.4	-29.2
COc1cc(C(=O)N2CCC(N3CCN(C)CC3)CC2)ccc1Nc1ncc2c(n1)N(C)c1ccccc1C(=O)N2C [LRRK2-IN-1]	224	215	44.2	53.9	-0.856	-0.909	58.9	103	7.96	4.98	-2.77	-1.16	-9.9	-13	-11.9	-17.6	7.52	56.2	1.4	1.43	5.8	10.2	31.1	27.8	57.2	50.6	62.8	43.3
CCOC(=O)CSc1nc(=O)c(NCC(=O)OC)n[nH]1 [Compound B4]	141	283	-3.67	-5.81	-0.743	-0.817	78.6	102	3.54	-5	-1.27	-2.9	-1.69	-8.87	-5.02	-14.2	-2.06	5.66	0.981	1.58	0	0	0.38	-0.636	7.69	-26.4	4.42	-27.1
[O]=[V]([O-])([O-])[O-] [Sodium orthovanadate]	14.9	5.6	-6.61	-4.07	-0.276	-0.0929	9.33	1.67	5.23	3.21	2.91	0.876	8.66	-0.441	8.42	-0.812	-3.1	8.27	0.239	0.284	0	0	7.34	4.35	13.8	7.93	20	10.3
